The results in this text go back to US10010558B2, “Frankiamicin A compositions and methods” (STC.UNM, priority 2015, dated 2018).

What all share (assay type): cell-based
Test [1] has as its system methicillin-resistant S. aureus (MRSA). The experiment in a line: Antimicrobial MTT viability assay, MRSA. The following applies: for MIC: MRS(A). A general note: Tetrazolium assays rely on reduction of a dye to a coloured formazan, in cell work by metabolically active cells.
Test [2] deals with P. aeruginosa. The experiment in a line: Antimicrobial MTT viability assay, P. aeruginosa.
Test [3] deals with S. pyogenes. The experiment in a line: Antimicrobial MTT viability assay, S. pyogenes.
The test system of test [4] is Y. pestis.
Test [5] has as its system Jurk. The experiment in a line: Anticancer MTT viability assay, Jurk cells. Conditions: Jurk cancer cell line, 48 hours incubation, 0-100 μM.
In test [6] the test system is MC. The experiment in a line: Anticancer MTT viability assay, MC cells. Conditions: MC cancer cell line, 48 hours incubation, 0-100 μM.
The test system of test [7] is S. aureus. The experiment in a line: Antimicrobial MTT viability assay, S. aureus. The following applies: for MIC: S. aureus. On the procedure:
Antimicrobial and anticancer assays were conducted by quantifying viability of cells exposed to frankiamicin A (2-fold serial diluted in DMSO) at concentrations ranging from 0-100 μM using an MTT assay (Frolova et al., 2013, J Med Chem 56:6886-6900). For antimicrobial assays, a liquid culture of each test strain was grown overnight at 37° C. in TSB media in a rotary incubator. The resulting culture was diluted 1:100 into fresh media and 100 μL aliquots were transferred to a 96-well plate. Serial diluted compound was added to individual wells and cells were incubated at 37° C. for either 6 hours or 18 hours prior to MTT assay. Anticancer assays were conducted using approximately 4000 cells incubated overnight at 37° C. in 100 μL DMEM media supplemented with 10% FBS, adding serial diluted compound, and incubating for 48 hours prior to MTT assay. Assays of T. cruzi (ATCC 30013) were conducted by growing cells unshaken at 25° C. in ATCC Medium 1029 (LIT Medium) for five days, diluting 1:10 into fresh media, adding 100 μM frankiamicin A, incubating for an additional eight days, and assessing cell viability by microscopy using an untreated control for comparison.

For test [8], the system named is He. The experiment in a line: Anticancer MTT viability assay, He cells. Conditions: He cancer cell line, 48 hours incubation, 0-100 μM.
The subject of test [9] is A. baumanii. The experiment in a line: Antimicrobial MTT viability assay, A. baumanii.
Test [10] relates to T. cruzi (ATCC 30013). The experiment in a line: T. cruzi viability assay by microscopy. The following applies: 100 μM frankiamicin A, eight days.
The subject of test [11] is C. albicans. The experiment in a line: Antimicrobial MTT viability assay, C. albicans. The following applies: 0-100 μM.

pIC50: −log10 of the molar value. Like-named read-outs stand apart in the source and are kept apart here.

frankiamicin A: the MIC (commonly the least concentration at which growth counts as inhibited) was “~” in [1] (assessed after 6 h incubation); >1 µM in [1] (assessed after 18 h incubation); >1 µM in test [2] (assessed after 6 h incubation); >1 µM in [2] (assessed after 18 h incubation); >1 µM in test [3] (assessed after 6 h incubation); >1 µM in [3] (assessed after 18 h incubation). The MIC in [4] (assessed after 6 h incubation) is >1 µM; in test [4] (assessed after 18 h incubation) it was >1 µM; in test [7] (assessed after 6 h incubation), ~1 µM; in test [7] (assessed after 18 h incubation) it was >1 µM; in [9] (assessed after 6 h incubation) it was >1 µM; in test [9] (assessed after 18 h incubation) it was >1 µM. Moreover, the antimicrobial activity entry in test [1] (methicillin-resistant S. aureus (MRSA)) and in test [7] (wild-type S. aureus) was “detectable antimicrobial activity” in each case. For the same substance, the pIC50 in test [5], in test [6], in [8], in test [10] and in [11] was < 6.00 in each case.
